Measurements from US6355799B1, “Substituted benzene compounds, process for their preparation, and herbicidal and defoliant compositions containing them” (ISK Americas Incorporated, priority 1997, dated 2002).

How the values were obtained:
Assay type in all cases: in vivo
[1] = test system: field corn (Zea mays L., var. Dekalb 535, CORN); assay: Pre-emerge test, crop safety; settings: rating scale 0-100, 14 days after application
How it was run: (§1)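 Compounds in acetone were track-sprayed at 187 l/ha, 15–1000 g ai/ha, onto sandy loam pots. Pre-emerge seeds were sown one day before spraying, with surface watering afterwards. Post-emerge plants were at the 2–3 leaf stage and sprayed with 0.25% v/v non-ionic surfactant. Injury was rated 0–100 at 14 days.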

[2] = test system: upland rice (Oryza sp., var. Tebonnet, RICE); assay: Pre-emerge test, crop safety; settings: rating scale 0-100, 14 days after application
How it was run: as §1

[3] = test system: large crabgrass (Digitaria sanguinalis, DIGSA); assay: Pre-emerge test, greenhouse herbicide activity screening; settings: rating scale 0-100, 14 days after application
How it was run: (§2)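 Compounds in acetone were track-sprayed at 15–1000 g ai/ha: pre-emergence onto soil sown the previous day, then top-watered to incorporate and later bottom-watered; post-emergence onto 2–3 leaf plants with 0.25% v/v surfactant, bottom-watered only. Ratings on a 0–100 phytotoxicity scale were taken at day 14.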

[4] = test system: velvetleaf (Abutilon theophrasti, ABUTH); assay: as above; settings: rating scale 0-100, 14 days after application
How it was run: as §2

[5] = test system: lambsquarters (Chenopodium album, CHEAL); assay: as above; settings: rating scale 0-100, 14 days after application
How it was run: as §2

[6] = test system: green foxtail (Setaria viridis, SETVI); assay: as above; settings: rating scale 0-100, 14 days after application
How it was run: as §2

[7] = test system: barnyardgrass (Echinochloa crus-galli, ECHCG); assay: as above; settings: rating scale 0-100, 14 days after application
How it was run: as §2

[8] = test system: johnsongrass (Sorghum halepense, SORHA); assay: as above; settings: rating scale 0-100, 14 days after application
How it was run: as §2

[9] = test system: sicklepod (Cassia obtusifolia, CASOB); assay: as above; settings: rating scale 0-100, 14 days after application
How it was run: as §2

[10] = test system: ivyleaf morningglory (Ipomoea hederacea, IPOHE); assay: as above; settings: rating scale 0-100, 14 days after application
How it was run: as §2

[11] = test system: redroot pigweed (Amaranthus retroflexus, AMARE); assay: as above; settings: rating scale 0-100, 14 days after application
How it was run: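 Plants grown in 10 cm pots of sandy loam mix received acetone-dissolved compounds through a moving flat-fan nozzle. Doses ranged from 15 to 1000 g ai/ha. Pre-emerge pots were seeded one day earlier, post-emerge pots 8–21 days earlier. Fourteen days on, each pot was graded 0–100 for damage.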

[12] = test system: large crabgrass (Digitaria sanguinalis, DIGSA); assay: Post-emerge test, greenhouse herbicide activity screening; settings: rating scale 0-100 (0 no damage, 100 complete death), 14 days after application
How it was run: (§3)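 Rating: 0–100 visual injury, 14 DAA. Application: acetone, 187 l/ha, 15–1000 g ai/ha, flat-fan track sprayer with nozzle 40–45 cm above soil or canopy. Post-emerge runs used 0.25% v/v surfactant on 2–3 leaf plants.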

[13] = test system: velvetleaf (Abutilon theophrasti, ABUTH); assay: as above; settings: rating scale 0-100 (0 no damage, 100 complete death), 14 days after application
How it was run: as §3

[14] = test system: lambsquarters (Chenopodium album, CHEAL); assay: as above; settings: rating scale 0-100 (0 no damage, 100 complete death), 14 days after application
How it was run: as §3

[15] = test system: green foxtail (Setaria viridis, SETVI); assay: as above; settings: rating scale 0-100 (0 no damage, 100 complete death), 14 days after application
How it was run: as §3

[16] = test system: barnyardgrass (Echinochloa crus-galli, ECHCG); assay: as above; settings: rating scale 0-100 (0 no damage, 100 complete death), 14 days after application
How it was run: as §3

[17] = test system: johnsongrass (Sorghum halepense, SORHA); assay: as above; settings: rating scale 0-100 (0 no damage, 100 complete death), 14 days after application
How it was run: as §3

[18] = test system: sicklepod (Cassia obtusifolia, CASOB); assay: as above; settings: rating scale 0-100 (0 no damage, 100 complete death), 14 days after application
How it was run: as §3

[19] = test system: redroot pigweed (Amaranthus retroflexus, AMARE); assay: as above; settings: rating scale 0-100 (0 no damage, 100 complete death), 14 days after application
How it was run: as §3

[20] = test system: common ragweed (Ambrosia artemisizfolia L., AMBEL); assay: as above; settings: rating scale 0-100 (0 no damage, 100 complete death), 14 days after application
How it was run: as §3

[21] = test system: ivyleaf morningglory (Ipomoea hederacea, IPOHE); assay: as above; settings: rating scale 0-100 (0 no damage, 100 complete death), 14 days after application
How it was run: as §3

[22] = test system: field corn (Zea mays L., var. Dekalb 535, CORN); assay: Post-emerge test, crop safety; settings: rating scale 0-100 (0 no damage, 100 complete death), 14 days after application
How it was run: as §3

[23] = test system: upland rice (Oryza sp., var. Tebonnet, RICE); assay: Post-emerge test, crop safety; settings: rating scale 0-100 (0 no damage, 100 complete death), 14 days after application
How it was run: as §3

CCOCCOC(=O)C(Cl)Cc1c(OC)c(Cl)cc(F)c1-n1c(=O)cc(C(F)(F)F)n(C)c1=O (centres unmarked) [14-26]
Pre-emerge phytotoxicity rating, crop damage CORN ([1]; 63 g ai/ha): 0
Pre-emerge phytotoxicity rating, crop damage CORN ([1]; 250 g ai/ha): 50
Pre-emerge phytotoxicity rating, crop damage RICE ([2]; 63 g ai/ha): 0
Pre-emerge phytotoxicity rating, crop damage RICE ([2]; 250 g ai/ha): 80
Pre-emerge herbicidal activity, phytotoxicity rating DIGSA ([3]; 63 g ai/ha): 50
Pre-emerge herbicidal activity, phytotoxicity rating DIGSA ([3]; 250 g ai/ha): 95
Pre-emerge herbicidal activity, phytotoxicity rating ABUTH ([4]; 63 g ai/ha): 80
Pre-emerge herbicidal activity, phytotoxicity rating ABUTH ([4]; 250 g ai/ha): 100
Pre-emerge herbicidal activity, phytotoxicity rating CHEAL ([5]; 63 g ai/ha): 70
Pre-emerge herbicidal activity, phytotoxicity rating CHEAL ([5]; 250 g ai/ha): 100
Pre-emerge herbicidal activity, phytotoxicity rating SETVI ([6]; 63 g ai/ha): 0
Pre-emerge herbicidal activity, phytotoxicity rating SETVI ([6]; 250 g ai/ha): 99
Pre-emerge herbicidal activity, phytotoxicity rating ECHCG ([7]; 63 g ai/ha): 0
Pre-emerge herbicidal activity, phytotoxicity rating ECHCG ([7]; 250 g ai/ha): 95
Pre-emerge herbicidal activity, phytotoxicity rating SORHA ([8]; 63 g ai/ha): 0
Pre-emerge herbicidal activity, phytotoxicity rating SORHA ([8]; 250 g ai/ha): 70
Pre-emerge herbicidal activity, phytotoxicity rating CASOB ([9]; 63 g ai/ha): 0
Pre-emerge herbicidal activity, phytotoxicity rating CASOB ([9]; 250 g ai/ha): 20
Pre-emerge herbicidal activity, phytotoxicity rating IPOHE ([10]; 63 g ai/ha): 0
Pre-emerge herbicidal activity, phytotoxicity rating IPOHE ([10]; 250 g ai/ha): 0
Pre-emerge herbicidal activity, phytotoxicity rating AMARE ([11]; 63 g ai/ha): 100
Pre-emerge herbicidal activity, phytotoxicity rating AMARE ([11]; 250 g ai/ha): 100
Post-emerge Herbicidal Activity, phytotoxicity rating DIGSA ([12]; Rate 63 g ai/ha): 100
Post-emerge Herbicidal Activity, phytotoxicity rating DIGSA ([12]; Rate 250 g ai/ha): 100
Post-emerge Herbicidal Activity, phytotoxicity rating ABUTH ([13]; Rate 63 g ai/ha): 70
Post-emerge Herbicidal Activity, phytotoxicity rating ABUTH ([13]; Rate 250 g ai/ha): 100
Post-emerge Herbicidal Activity, phytotoxicity rating CHEAL ([14]; Rate 63 g ai/ha): 60
Post-emerge Herbicidal Activity, phytotoxicity rating CHEAL ([14]; Rate 250 g ai/ha): 100
Post-emerge Herbicidal Activity, phytotoxicity rating SETVI ([15]; Rate 63 g ai/ha): 0
Post-emerge Herbicidal Activity, phytotoxicity rating SETVI ([15]; Rate 250 g ai/ha): 0
Post-emerge Herbicidal Activity, phytotoxicity rating ECHCG ([16]; Rate 63 g ai/ha): 100
Post-emerge Herbicidal Activity, phytotoxicity rating ECHCG ([16]; Rate 250 g ai/ha): 100
Post-emerge Herbicidal Activity, phytotoxicity rating SORHA ([17]; Rate 63 g ai/ha): 30
Post-emerge Herbicidal Activity, phytotoxicity rating SORHA ([17]; Rate 250 g ai/ha): 70
Post-emerge Herbicidal Activity, phytotoxicity rating CASOB ([18]; Rate 63 g ai/ha): 50
Post-emerge Herbicidal Activity, phytotoxicity rating CASOB ([18]; Rate 250 g ai/ha): 90
Post-emerge Herbicidal Activity, phytotoxicity rating AMARE ([19]; Rate 63 g ai/ha): 90
Post-emerge Herbicidal Activity, phytotoxicity rating AMARE ([19]; Rate 250 g ai/ha): 100
Post-emerge Herbicidal Activity, phytotoxicity rating AMBEL ([20]; Rate 63 g ai/ha): 100
Post-emerge Herbicidal Activity, phytotoxicity rating AMBEL ([20]; Rate 250 g ai/ha): 100
Post-emerge Herbicidal Activity, phytotoxicity rating IPOHE ([21]; Rate 63 g ai/ha): 20
Post-emerge Herbicidal Activity, phytotoxicity rating IPOHE ([21]; Rate 250 g ai/ha): 100
Post-emerge phytotoxicity rating CORN (crop damage) ([22]; Rate 63 g ai/ha): 40
Post-emerge phytotoxicity rating CORN (crop damage) ([22]; Rate 250 g ai/ha): 100
Post-emerge phytotoxicity rating RICE (crop damage) ([23]; Rate 63 g ai/ha): 10
Post-emerge phytotoxicity rating RICE (crop damage) ([23]; Rate 250 g ai/ha): 10

COc1c(Cl)cc(F)c(-n2c(=O)cc(C(F)(F)F)n(C)c2=O)c1CC(Cl)C(=O)OCCC#N (centres unmarked) [14-29]
Pre-emerge phytotoxicity rating, crop damage CORN ([1]; 63 g ai/ha): 0
Pre-emerge phytotoxicity rating, crop damage CORN ([1]; 250 g ai/ha): 10
Pre-emerge phytotoxicity rating, crop damage RICE ([2]; 63 g ai/ha): 0
Pre-emerge phytotoxicity rating, crop damage RICE ([2]; 250 g ai/ha): 20
Pre-emerge herbicidal activity, phytotoxicity rating DIGSA ([3]; 63 g ai/ha): 0
Pre-emerge herbicidal activity, phytotoxicity rating DIGSA ([3]; 250 g ai/ha): 50
Pre-emerge herbicidal activity, phytotoxicity rating ABUTH ([4]; 63 g ai/ha): 0
Pre-emerge herbicidal activity, phytotoxicity rating ABUTH ([4]; 250 g ai/ha): 80
Pre-emerge herbicidal activity, phytotoxicity rating CHEAL ([5]; 63 g ai/ha): 0
Pre-emerge herbicidal activity, phytotoxicity rating CHEAL ([5]; 250 g ai/ha): 50
Pre-emerge herbicidal activity, phytotoxicity rating SETVI ([6]; 63 g ai/ha): 0
Pre-emerge herbicidal activity, phytotoxicity rating SETVI ([6]; 250 g ai/ha): 0
Pre-emerge herbicidal activity, phytotoxicity rating ECHCG ([7]; 63 g ai/ha): 0
Pre-emerge herbicidal activity, phytotoxicity rating ECHCG ([7]; 250 g ai/ha): 0
Pre-emerge herbicidal activity, phytotoxicity rating SORHA ([8]; 63 g ai/ha): 0
Pre-emerge herbicidal activity, phytotoxicity rating SORHA ([8]; 250 g ai/ha): 0
Pre-emerge herbicidal activity, phytotoxicity rating CASOB ([9]; 63 g ai/ha): 0
Pre-emerge herbicidal activity, phytotoxicity rating CASOB ([9]; 250 g ai/ha): 0
Pre-emerge herbicidal activity, phytotoxicity rating IPOHE ([10]; 63 g ai/ha): 0
Pre-emerge herbicidal activity, phytotoxicity rating IPOHE ([10]; 250 g ai/ha): 0
Pre-emerge herbicidal activity, phytotoxicity rating AMARE ([11]; 63 g ai/ha): 20
Pre-emerge herbicidal activity, phytotoxicity rating AMARE ([11]; 250 g ai/ha): 95
Post-emerge Herbicidal Activity, phytotoxicity rating DIGSA ([12]; Rate 63 g ai/ha): 70
Post-emerge Herbicidal Activity, phytotoxicity rating DIGSA ([12]; Rate 250 g ai/ha): 95
Post-emerge Herbicidal Activity, phytotoxicity rating ABUTH ([13]; Rate 63 g ai/ha): 50
Post-emerge Herbicidal Activity, phytotoxicity rating ABUTH ([13]; Rate 250 g ai/ha): 100
Post-emerge Herbicidal Activity, phytotoxicity rating CHEAL ([14]; Rate 63 g ai/ha): 30
Post-emerge Herbicidal Activity, phytotoxicity rating CHEAL ([14]; Rate 250 g ai/ha): 60
Post-emerge Herbicidal Activity, phytotoxicity rating SETVI ([15]; Rate 63 g ai/ha): 20
Post-emerge Herbicidal Activity, phytotoxicity rating SETVI ([15]; Rate 250 g ai/ha): 70
Post-emerge Herbicidal Activity, phytotoxicity rating ECHCG ([16]; Rate 63 g ai/ha): 100
Post-emerge Herbicidal Activity, phytotoxicity rating ECHCG ([16]; Rate 250 g ai/ha): 100
Post-emerge Herbicidal Activity, phytotoxicity rating SORHA ([17]; Rate 63 g ai/ha): 50
Post-emerge Herbicidal Activity, phytotoxicity rating SORHA ([17]; Rate 250 g ai/ha): 70
Post-emerge Herbicidal Activity, phytotoxicity rating CASOB ([18]; Rate 63 g ai/ha): 0
Post-emerge Herbicidal Activity, phytotoxicity rating CASOB ([18]; Rate 250 g ai/ha): 40
Post-emerge Herbicidal Activity, phytotoxicity rating AMARE ([19]; Rate 63 g ai/ha): 90
Post-emerge Herbicidal Activity, phytotoxicity rating AMARE ([19]; Rate 250 g ai/ha): 100
Post-emerge Herbicidal Activity, phytotoxicity rating AMBEL ([20]; Rate 63 g ai/ha): 100
Post-emerge Herbicidal Activity, phytotoxicity rating AMBEL ([20]; Rate 250 g ai/ha): 100
Post-emerge Herbicidal Activity, phytotoxicity rating IPOHE ([21]; Rate 63 g ai/ha): 80
Post-emerge Herbicidal Activity, phytotoxicity rating IPOHE ([21]; Rate 250 g ai/ha): 80
Post-emerge phytotoxicity rating CORN (crop damage) ([22]; Rate 63 g ai/ha): 15
Post-emerge phytotoxicity rating CORN (crop damage) ([22]; Rate 250 g ai/ha): 50
Post-emerge phytotoxicity rating RICE (crop damage) ([23]; Rate 63 g ai/ha): 0
Post-emerge phytotoxicity rating RICE (crop damage) ([23]; Rate 250 g ai/ha): 10
